From paper PMC3017119, “Structural Basis for the Recognition of Cellular mRNA Export Factor REF by Herpes Viral Proteins HSV-1 ICP27 and HVS ORF57” (PLoS Pathogens, 2011)
Where no end group is shown, it is not given here.

molecular target: T1, REF^54–155 (REF2-I RRM domain) (Mus musculus, UniProt Q9JJW6); test: NMR chemical shift titration of 15N-REF^54–155 with viral peptides (dissociation constants); format: binding, murine; settings: not given
T1 construct: made in house
Experimental: A separate titration of each peptide was carried out under the same sample conditions. Increasing amounts of peptide were added to a ^15N-REF^54–155 sample, achieving binding saturation whenever possible. Throughout these titrations amide chemical shift changes were monitored to assess the relative binding affinity of these peptides for REF and simultaneously map their binding sites. Estimates of dissociation constants were obtained for each peptide, and for the longer viral adaptor fragments (Table 2). […] A reduction in affinity was more pronounced in the L108A mutant, with the R107A mutation virtually abolishing the binding. […] This agrees with the NMR mapping data that a longer sequence from ORF57 (residues 103–120) is involved in REF binding. […] These latter two viral adaptors lack the signature Trp residue, and additionally in KSHV-ORF57 the Arg within the triad is replaced by Lys. As a further control, we also checked if binding of the viral peptides is specific to the RRM domain of REF, or if it can occur with RRMs of other proteins as well. The proteins SF2 [37] and 9G8 [38] bind TAP/p15 and have roles in splicing and mRNA export somewhat similar to that of REF/Aly. They also contain an RRM domain and are therefore structurally homologous to REF/Aly. To test if the same ICP27 motif could interact with these RRM domains, we added a 5-fold excess of WT ICP27^103–112 peptide to ^15N-labelled SF2 [37] and 9G8 [38]. […] These experiments confirmed that the recognition of the REF RRM domain by viral adaptor proteins is highly specific, and the isolated peptides ICP27^103–112, ICP27^103–110 and ORF57^103–120 are able to bind REF as efficiently as longer fragments of these viral proteins.
All experiments were carried out at 30°C on Bruker DRX600, DRX700 and Varian Inova 800 MHz spectrometers equipped with cryoprobes. The weighted chemical shift changes of amide signals δCS caused by complex formation were measured as [drawing 1] , where Δδ^H and Δδ^N were changes in proton and nitrogen chemical shifts, respectively. Standard triple-resonance experiments were used to assign spectra of ICP27^103–138, ORF57^8–120 and REF^54–155 in their free and bound states. Additionally, carbon-detection experiments (CON, CaCO, CbCaCO, CbCaCO(N), CbCaNCO) were used as an aid to the ORF57 assignment. Spectra were processed using NMRpipe and Topspin 2.1 (Bruker) and analysed using Sparky (University of California). Distance restraints obtained from 3D ^15N- and ^13C edited NOESY-HSQC experiments (τm 120 ms) and dihedral restraints from TALOS [51] were used in structure calculations by CYANA [52]. Additionally, intermolecular contacts were unambiguously identified using ^13C edited, ^12C-filtered NOESY-HSQC (τm 150 ms) spectra acquired on Varian Inova 800 MHz spectrometer. In this experiment only NOE crosspeaks between ^1H-^13C moieties of ^13C,^15N-labelled REF and ^1H(^12C) of unlabelled ICP27 peptide were observed, [54]. A final ensemble contained 20 structures with lowest target function values. Images were generated using Pymol (DeLano Scientific). For the REF - ICP27 complex, structure coordinates and experimental constraints have been deposited into the Protein Data Bank and chemical shifts in the BioMagResBank (access numbers 2kt5 and bmr16683 respectively). Other chemical shift assignments deposited in the BioMagResBank are: free ICP27^103–138 bmr16696, free REF^54–155 bmr16697, and ORF57^8–120 bmr16698 (both free and bound to REF^54–155).
Unlabelled synthetic peptides were obtained from Peptide Protein Research Ltd (UK). The synthetic peptide sequences used were from Varicella-zoster virus ORF4^108–119 (AAY57694), Kaposi's sarcoma-associated herpesvirus ORF57^100–110 (YP_001129410), Herpesvirus Saimiri ORF57^103–120 & 105–115 (CAC84353), Herpes simplex virus 1 ICP27^103–110 & 103–112 (AAF43147). […]

Row | Substance | Kd [µM]
1 | TGYARIERGHRR [VZV ORF4^108–119] | > 1000
2 | NRYGKKIKFGT [KSHV ORF57^100–110, reference compound] | > 100000
3 | SVWSALGARR [ICP27^103–112 R107A] | > 10000
4 | KTSWADRVREA [HVS ORF57^105–115] | > 1000
5 | SCKTSWADAVREAAAQRR [HVS ORF57^103–120 R111A] | 254 ± 50
6 | SCKTSAADRVREAAAQRR [HVS ORF57^103–120 W108A] | > 7500
7 | SVASRLGARR [ICP27^103–112 W105A] | 550 ± 210
8 | SCKTSWADRAREAAAQRR [HVS ORF57^103–120 V112A] | 156 ± 32
9 | SVWSRAGARR [ICP27^103–112 L108A] | > 5000

same assay, conditions: chemical shift changes in 1H-15N correlation spectra of 100 µM 15N-REF^54–155 versus increasing peptide concentration, fitted to standard equation; 30°C; NMR buffer 20 mM phosphate, 50 mM NaCl, 50 mM L-Arg/L-Glu/β-mercaptoethanol, 10 mM EDTA, pH 6.2; read-out: K D

Row | Substance | Kd [µM]
10 | …SCKTSWADRVREAAAQRR [HVS ORF57^8–120, recombinant fragment aa 8–120 of Herpesvirus saimiri ORF57, with T7 and poly-His tags] | 78 ± 12

test system: GST-REF2-I; test: GST-REF2-I pull down of 35S-radiolabelled ICP27 fragments; format: binding, murine; settings: 35S-radiolabelled protein from rabbit reticulocytes, glutathione beads, RB100 buffer pH 7.5, 10 µg/ml RNAse A; SDS-PAGE, PhosphoImage
Description: To confirm the position of REF-binding domains within ICP27 and ORF57 and to minimise the size of constructs for more detailed NMR mapping, a series of fragments derived from HSV-1 ICP27 were screened for binding to GST-REF2-I using pull down assays (Fig. 1). […] The REF-binding fragment of ORF57 aa 8–120 identified previously similarly interacted with the same fragments of REF (Fig. 1D).
Figure 1 Identification of regions for the interactions between REF and ICP27/ORF57. (A) Subdivision of ICP27, ORF57 and REF2-I in fragments. […] (C) Fusion of the ICP27^103–138 peptide to GST allows a specific pull down of REF, REF^1–155 (NM) and REF^54–155 (Δ53) and a very weak pull down of the REF^1–70 (N); no interaction is detected with the control Ras protein. (D) Same pull down assay as panel C but using GST fusion of ORF57 aa 8–120 in place of ICP27.
GST or GST protein fusions were first immobilised on 30 µl slurry glutathione-coated beads (GE Healthcare) before 8 µl ^35S-radiolabelled proteins synthesised in rabbit reticulocytes (Promega) were added to the binding reactions in RB100 buffer (25 mM HEPES pH 7.5/100 mM KOAc/10 mM MgCl2/1 mM DTT/0.05% Triton X-100/10% glycerol) in presence of 10 µg/ml RNAse A. Washed and eluted protein complexes were resolved on 15% SDS-PAGE stained with Coomassie blue and analysed by PhosphoImage. […]

Row | Substance | Binding to GST-REF2-I in pull down
11 | ICP27^1–103: fragment aa 1–103 of HSV-1 ICP27 | no binding
12 | ICP27^139–512: fragment aa 139–512 of HSV-1 ICP27 | no binding

test system: REF^156–218 (REF2-I C-terminal domain); test: NMR 1H-15N correlation spectra of 15N-labelled REF^156–218 with added viral protein constructs; format: binding, murine; settings: 2-fold excess of viral construct; 15N-HSQC

Row | Substance | Changes in 1H-15N correlation spectra of 15N-REF^156–218 upon addition
13 | …SCKTSWADRVREAAAQRR [HVS ORF57^8–120, recombinant fragment aa 8–120 of Herpesvirus saimiri ORF57, with T7 and poly-His tags] | No significant changes
